According to patent US12514832B2, “Methods for using low-dose colchicine after myocardial infarction” (INSTITUT DE CARDIOLOGIE DE MONTREAL, priority 2019, dated 2026):

Assay: COLCOT safety and adverse events (safety population)
Format: in vivo, human
Method: All serious adverse events were recorded. The only other adverse events recorded were those that were considered to be related to the gastrointestinal system, events that were judged by the investigator to be related to colchicine or placebo, or laboratory abnormalities that had been judged by the investigator to be clinically significant.

COc1cc2c(c(OC)c1OC)-c1ccc(OC)c(=O)cc1[C@@H](NC(C)=O)CC2 [Colchicine, colchicine]
trial regimen discontinued, percent of patients (at the end of the trial): 18.4% | incidence of septic shock (in words) (colchicine vs placebo): did not increase the incidence of septic shock | Cancers, excluding nonmelanoma skin cancers, number of patients (safety population): 42 | Cancers, excluding nonmelanoma skin cancers, percent (safety population): 1.8% | Anemia, number of patients (safety population, N=2330): 14 | Anemia, percent (safety population, N=2330): 0.6% | Any related adverse event, number of patients (safety population, N=2330): 372 | Any related adverse event, percent (safety population, N=2330): 16.0% | Any serious adverse event, number of patients (safety population, N=2330): 383 | Any serious adverse event, percent (safety population, N=2330): 16.4% | Cancer, number of patients (safety population, N=2330): 43 | Cancer, percent (safety population, N=2330): 1.8% | Diarrhea adverse event, number of patients (safety population, N=2330): 225 | Diarrhea adverse event, percent (safety population, N=2330): 9.7% | Flatulence adverse event, number of patients (safety population, N=2330): 15 | Flatulence adverse event, percent (safety population, N=2330): 0.6% | Gastrointestinal adverse event, number of patients (safety population, N=2330): 408 | Gastrointestinal adverse event, percent (safety population, N=2330): 17.5% | Gastrointestinal hemorrhage, number of patients (safety population, N=2330): 7 | Gastrointestinal hemorrhage, percent (safety population, N=2330): 0.3% | Gastrointestinal serious adverse event, number of patients (safety population, N=2330): 46 | Gastrointestinal serious adverse event, percent (safety population, N=2330): 2.0% | Hospitalization for heart failure, number of patients (safety population, N=2330): 25 | Hospitalization for heart failure, percent (safety population, N=2330): 1.1% | Infection serious adverse event, number of patients (safety population, N=2330): 51 | Infection serious adverse event, percent (safety population, N=2330): 2.2% | Leukopenia, number of patients (safety population, N=2330): 2 | Leukopenia, percent (safety population, N=2330): 0.1% | Nausea adverse event, number of patients (safety population, N=2330): 43 | Nausea adverse event, percent (safety population, N=2330): 1.8% | Pneumonia serious adverse event, number of patients (safety population, N=2330): 21 | Pneumonia serious adverse event, percent (safety population, N=2330): 0.9% | Septic shock serious adverse event, number of patients (safety population, N=2330): 2 | Septic shock serious adverse event, percent (safety population, N=2330): 0.1% | Thrombocytopenia, number of patients (safety population, N=2330): 3 | Thrombocytopenia, percent (safety population, N=2330): 0.1% | serious adverse event of myopathy (statins used in 99% of trial participants): no serious adverse event of myopathy linked to colchicine occurred
